# Patent publication US20120028917A1, “Use Of N-(4-((3-(2-Amino-4-Pyrimidinyl)-2-Pyridinyl)Oxy)Phenyl)-4-(4-Methyl-2-Thienyl)-1-Phthalazinamine In The Treatment Of Antimitotic Agent Resistant Cancer” (Amgen Inc., priority 2009, published 2012)
# Several values for one entry are separate records, joined by “and”; a condition that tells them apart may be missing. Equal entries are not always repeated.
# Legend:
# HL-60 = test: Multiparameter cell cycle DNA content assay (flow cytometry); format: cell-based; settings: Homo sapiens; HL-60, Promyelocytic leukemia; 48 hours without compound withdrawal; read-out: EC50 (+4N DNA content endpoint)
# Experimental: (§1) Tumor cells were seeded in a 300 μL deep 96-well plate in 150 μL of appropriate complete media at a density of 100,000 cells/well. The cells were treated with AMG 900 (10-point dose range 0.156 to 0.0003 μM) with a final DMSO concentration of 0.2% in media. Two hours prior to harvest time, the cells were pulsed with BrdU at the final concentration of 1:100 in media. After 48 hours, 100 μL of media was removed from each well with a multi-well pipetter. Then the cells were transferred to PCR tube strips in 200 μL of media. The cells were centrifuged at 2000 rpm at 18° C. for 4 minutes and the supernatant was aspirated. The cells were then fixed in 200 μL of ice cold 90% methanol and stored at −20° C. for at least 24 hours before antibody and DNA staining. Fixed cells were centrifuged at 2000 rpm for 4 minutes to remove 90% methanol. Cells were washed with 200 μL of wash buffer and then treated with 100 μL acid buffer at room temperature for 1 hour in the dark. Cells were washed twice with 200 μL wash buffer (until pH was 7.0, confirmed with pH paper). Cells were incubated with an anti-BrdU-Alexa 647 (3 μg/mL) and anti-Caspase 3-FITC (20 μ/well) antibody cocktail in wash buffer for 2 hours at room temperature in the dark. Stained cells were centrifuged and washed with 200 μL of wash buffer. Cells were counterstained with 200 μL of propidium iodide (PI) overnight at 4° C. in the dark. Data was acquired and analyzed by flow cytometer (LSRII). A threshold gate was applied according to DNA content, BrdU, and Caspase-3 positive/negative populations based on DMSO control and low/high drug-treated groups. The data was represented as a percentage of SubG1 DNA content, 4N+ DNA content, BrdU, and Caspase-3 cleavage positive populations. The concentration-response curves and EC50 values were calculated using a 4-parameter equation.
# RPMI-8226 = test: as above; format: cell-based; settings: Homo sapiens; RPMI-8226, Multiple Myeloma; 48 hours without compound withdrawal; read-out: EC50 (+4N DNA content endpoint)
# Experimental: as §1
# MDA-MB-231-Taxol-r = test: Cell cycle DNA content assay (flow cytometry); format: cell-based; settings: Homo sapiens, 24 h, Breast, Paclitaxel-selected, read-out: EC50 @ 24 hours, ≧4N DNA content
# Experimental: (§2) MDA-MB-231(F11)-luc parent and taxol-resistant cells were seeded at a density of 250,000 cells/well in a 12-well plate in 1 mL of in the appropriate media, in duplicates. The next day cells were treated with AMG 900 or taxol over a 10-point concentration range with a final DMSO concentration of 0.1% in taxol-free media. After 24 hours, cells were harvested with 1× trypsin-EDTA and transferred to PCR tubes. Cells were centrifuged at 2000 rpm for 4 minutes and the supernatant was aspirated. Cells were fixed in 200 μL of ice cold 90% methanol and stored at −20° C. for at least 24 hours. Fixed cells were centrifuged at 2000 rpm for 4 minutes to remove 90% methanol. Cells were washed with wash buffer and stained with 200 μL of propidium iodide (PI) for 30 minutes at 4° C. in the dark. An additional 400 μL of PI was added before data acquisition. Data was acquired and analyzed by flow cytometry (LSRII). A threshold gate was applied according to +4N (same as ≧4N) DNA content based on DMSO control and low/high drug-treated groups. The data was represented as percentage of control for +4N DNA content positive populations. The +4N DNA content cellular EC50 values were assigned using 4-parameter equation. […] Flow cytometric-based cell cycle analysis was performed to measure the percentage of ≧4N DNA content or SubG1 DNA content positive cells. The dose-response curves for AMG 900 represent the drug concentration plotted against the percentage of ≧4N DNA content positive cells. The dose-response curves for taxol represent the drug concentration plotted against the percentage of SubG1 DNA content positive cells. The EC50 values were calculated by 4-parameter fit model.
# MDA-MB-231 = test: Cell cycle DNA content assay (flow cytometry); format: cell-based; settings: Homo sapiens, 24 h; MDA-MB-231, Breast, Parent line; read-out: EC50 @ 24 hours, ≧4N DNA content
# Experimental: as §2
# [1] = tested on: NCI-H460-taxol resistant tumor xenografts; test: Growth of established NCI-H460-taxol resistant xenografts (Example 4); format: in vivo, athymic nude mice
# Experimental: To investigate whether AMG 900-induced suppression of aurora kinase activity inhibits cell proliferation, the antitumor efficacy of AMG 900 was evaluated in vivo against NCI-H460-taxol resistant tumor xenografts in athymic nude mice. Mice were dosed PO with AMG 900 (BID) either intermittently or continuously. Mice were dosed IP with paclitaxel (taxol) 5 days/week. An internal Amgen compound was used as a positive control in this study (data not shown). Tumors were measured twice per week. Treatment began on day 12 when the tumors were established. All groups were provided nutritional supplements on a daily basis throughout the study to maintain body weight. AMG 900 (free base) was formulated into suspension to concentrations of 1.5 and 0.3 mg/mL. […] The duration of the dosing phase for AMG 900 was three weeks, and two weeks for the taxol group. The tumors were measured with a digital caliper and the mice were weighed twice per week. Tumor volumes were calculated as follows: […] Tumor inhibition was calculated as follows: […] FIG. 5 illustrates the effects of AMG 900 and Taxol treatment on the growth of established H460-taxol resistant tumors. […] Tumors were measured twice per week. Treatment began 12 days after tumor implantation (arrow) when tumors were approximately 170 mm^3. Mice were dosed PO or IP once or twice daily for 3 weeks. Data represent mean ±SE for each group. *P values (not shown) correspond to statistical difference between groups treated with vehicle and AMG 900 or Taxol analyzed with repeated measure Sheffe's ANOVA over time using […]. The scheduled days listed in the legend represent days/ week. All groups were provided nutritional supplements throughout the study.
# HCT116 parental = test: Colony formation assay (FIG. 6-B); format: cell-based, human; settings: 48 hours treatment, re-plated drug-free
# Experimental: Cells were grown until the DMSO control wells were confluent. Cells were stained with crystal violet dye (Sigma), washed with distilled water, and imaged using a digital scanner (Hewlett-Packard). Colony formation assay was performed with HCT116 cell lines (parental and AZD1152-resistant). Cells were treated with DMSO, AMG 900, AZD1152, or paclitaxel at the indicated concentrations for 48 hours and re-plated in complete media lacking the inhibitor. After the DMSO-treated cells reached confluence, the cells were stained with crystal violet and imaged (duplicate wells).
# [2] = 3mpk PO BID 7 days/week × 3 wks
# [3] = 15mpk PO BID 2 days ON/5 day OFF/week × 3 wks
smiles,measurement,setting,value
"Cc1csc(-c2nnc(Nc3ccc(Oc4ncccc4-c4ccnc(N)n4)cc3)c3ccccc23)c1 [AMG 900, N-(4-((3-(2-amino-4-pyrimidinyl)-2-pyridinyl)oxy)phenyl)-4-(4-methyl-2-thienyl)-1-phthalazinamine]",EC50,HL-60,2 nM
same,EC50,RPMI-8226,2 nM
same,EC50,MDA-MB-231-Taxol-r,1 nM
same,EC50,MDA-MB-231,1 nM
same,% Inhibition (tumor growth),[1]; [2],60% and 60.4%
same,"Tumor volume, Mean",[1]; [2],771 mm^3
same,"Tumor volume, Median",[1]; [2],715.6 mm^3
same,% Inhibition (tumor growth),[1]; [3],66% and 65.7%
same,"Tumor volume, Mean",[1]; [3],689 mm^3
same,"Tumor volume, Median",[1]; [3],612.5 mm^3
same,concentrations inhibiting colony formation,HCT116 parental,≥ 5 nmol/L
